PMC4522657, “Identification of a DYRK1A Inhibitor that Induces Degradation of the Target Kinase using Co-chaperone CDC37 fused with Luciferase nanoKAZ” (Scientific Reports, 2015)

How the values were obtained:
[1] = molecular target: T1, PBK (Homo sapiens, UniProt Q96KB5); assay: Kinase panel, CaNDY 1 µM; format: biochemical; settings: CaNDY 1 µM relative to DMSO
T1 construct: purchased Carna Biosciences

[2] = molecular target: T2, TYK2 (Homo sapiens, UniProt P29597); assay: Kinase panel, CaNDY 1 µM; format: biochemical; settings: CaNDY 1 µM relative to DMSO
T2 construct: purchased Carna Biosciences
T2 sequence (P29597 whole entry): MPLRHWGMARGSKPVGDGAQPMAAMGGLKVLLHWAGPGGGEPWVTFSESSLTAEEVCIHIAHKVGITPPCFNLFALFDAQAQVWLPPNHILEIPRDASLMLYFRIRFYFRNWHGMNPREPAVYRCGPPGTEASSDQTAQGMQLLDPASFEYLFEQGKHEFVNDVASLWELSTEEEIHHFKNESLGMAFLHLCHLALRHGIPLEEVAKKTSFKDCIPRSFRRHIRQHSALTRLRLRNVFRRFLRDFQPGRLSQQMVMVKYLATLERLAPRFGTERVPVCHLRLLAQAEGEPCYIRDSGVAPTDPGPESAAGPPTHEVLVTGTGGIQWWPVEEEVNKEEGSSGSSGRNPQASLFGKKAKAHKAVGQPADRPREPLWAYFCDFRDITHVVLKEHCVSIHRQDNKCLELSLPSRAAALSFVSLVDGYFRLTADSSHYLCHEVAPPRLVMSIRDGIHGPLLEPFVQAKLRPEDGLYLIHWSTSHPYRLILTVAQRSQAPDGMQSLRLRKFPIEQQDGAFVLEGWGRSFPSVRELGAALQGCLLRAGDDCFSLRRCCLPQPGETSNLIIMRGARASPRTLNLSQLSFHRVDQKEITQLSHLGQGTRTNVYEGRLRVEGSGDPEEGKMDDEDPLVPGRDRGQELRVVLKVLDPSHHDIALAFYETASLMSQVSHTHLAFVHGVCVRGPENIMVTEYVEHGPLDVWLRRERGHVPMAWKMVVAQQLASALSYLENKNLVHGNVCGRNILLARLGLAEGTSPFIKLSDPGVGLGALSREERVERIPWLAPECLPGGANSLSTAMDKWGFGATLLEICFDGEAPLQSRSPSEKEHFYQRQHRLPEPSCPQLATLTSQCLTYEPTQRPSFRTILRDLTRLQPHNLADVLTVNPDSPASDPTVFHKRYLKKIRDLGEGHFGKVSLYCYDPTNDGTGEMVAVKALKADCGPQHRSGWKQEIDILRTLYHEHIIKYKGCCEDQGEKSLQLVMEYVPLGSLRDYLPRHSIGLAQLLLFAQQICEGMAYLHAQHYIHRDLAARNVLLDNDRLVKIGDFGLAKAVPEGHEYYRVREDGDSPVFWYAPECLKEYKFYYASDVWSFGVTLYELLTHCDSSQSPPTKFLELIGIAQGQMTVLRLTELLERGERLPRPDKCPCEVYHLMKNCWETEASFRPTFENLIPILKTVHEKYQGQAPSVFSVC

[3] = test system: other 19 kinases; assay: Western blot of other kinases in HEK293 cells; format: cell-based; settings: CaNDY 2 μM, 4 days
Protocol: To check selectivity of CaNDY for other kinases, we first examined protein expression of several kinases in HEK293 cells treated with CaNDY (2 μM) for 4 days. […] Third, protein expression of these kinases targeted by CaNDY (DYRK1A, DYRK1B, CLK1, and Haspin) was reassessed by Western blot analysis as performed in Fig. 7b.
(§1) Western blot analysis was performed using the antibodies described above. In brief, total cell lysates were separated by SDS-PAGE (5–20% gels; ATTO, Tokyo, Japan) under reducing conditions and then transferred to a PVDF membrane (PALL, SP, Brazil). Antibody reactions were performed with Can Get Signal® Immunoreaction Enhancer Solution (Toyobo). Peroxidase activities on the membrane were visualized with ECL Western Blotting Detection Reagents (GE Healthcare) or ImmunoStar® LD (Wako Pure Chemical Industries, Osaka, Japan), and a ChemiDoc^TM MP Imaging System (Bio-Rad, Hercules, CA, USA).

[4] = molecular target: T3, PKCβ1 (Homo sapiens, UniProt P05771); assay: Kinase panel, CaNDY 1 µM; format: biochemical; settings: CaNDY 1 µM relative to DMSO
T3 construct: purchased Carna Biosciences

[5] = molecular target: T4, FGFR3(K650E) (Homo sapiens, UniProt P22607, K650E); assay: Kinase panel, CaNDY 1 µM; format: biochemical; settings: CaNDY 1 µM relative to DMSO
T4 construct: purchased Carna Biosciences
T4 sequence (P22607 23-806 K650E): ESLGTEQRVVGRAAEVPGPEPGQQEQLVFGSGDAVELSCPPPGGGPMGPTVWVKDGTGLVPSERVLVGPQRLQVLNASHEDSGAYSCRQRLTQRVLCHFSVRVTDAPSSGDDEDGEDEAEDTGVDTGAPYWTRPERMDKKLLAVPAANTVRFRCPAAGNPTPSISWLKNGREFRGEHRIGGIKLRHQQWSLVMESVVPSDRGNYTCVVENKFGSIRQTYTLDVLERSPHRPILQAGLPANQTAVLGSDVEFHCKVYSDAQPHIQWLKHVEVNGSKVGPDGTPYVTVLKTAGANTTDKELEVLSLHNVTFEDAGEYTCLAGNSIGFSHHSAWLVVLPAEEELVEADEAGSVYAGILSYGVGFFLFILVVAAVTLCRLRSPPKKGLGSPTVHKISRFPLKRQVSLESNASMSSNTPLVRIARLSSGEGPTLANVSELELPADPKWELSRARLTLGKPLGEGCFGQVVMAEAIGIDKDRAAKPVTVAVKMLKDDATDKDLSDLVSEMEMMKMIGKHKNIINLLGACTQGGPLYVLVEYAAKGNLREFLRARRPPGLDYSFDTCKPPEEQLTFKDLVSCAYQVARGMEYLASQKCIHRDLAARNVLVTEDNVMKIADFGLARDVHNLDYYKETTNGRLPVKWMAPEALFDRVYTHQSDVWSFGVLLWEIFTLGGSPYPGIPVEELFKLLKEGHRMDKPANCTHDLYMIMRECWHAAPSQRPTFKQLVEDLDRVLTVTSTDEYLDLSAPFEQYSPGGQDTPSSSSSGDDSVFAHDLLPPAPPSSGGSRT

[6] = molecular target: T5, Erk2 (Homo sapiens, UniProt P28482); assay: Kinase panel, CaNDY 1 µM; format: biochemical; settings: CaNDY 1 µM relative to DMSO
T5 construct: purchased Carna Biosciences

[7] = molecular target: T6, PIM1 (Homo sapiens, UniProt P11309); assay: Kinase panel, CaNDY 1 µM; format: biochemical; settings: CaNDY 1 µM relative to DMSO
T6 construct: purchased Carna Biosciences

[8] = molecular target: T7, MLK1_Cascade (Homo sapiens, UniProt P80192); assay: Kinase panel, CaNDY 1 µM; format: biochemical; settings: CaNDY 1 µM relative to DMSO
T7 construct: purchased Carna Biosciences

[9] = molecular target: T8, CaMK1α (Homo sapiens, UniProt Q14012); assay: Kinase panel, CaNDY 1 µM; format: biochemical; settings: CaNDY 1 µM relative to DMSO
T8 construct: purchased Carna Biosciences
T8 sequence (Q14012 whole entry): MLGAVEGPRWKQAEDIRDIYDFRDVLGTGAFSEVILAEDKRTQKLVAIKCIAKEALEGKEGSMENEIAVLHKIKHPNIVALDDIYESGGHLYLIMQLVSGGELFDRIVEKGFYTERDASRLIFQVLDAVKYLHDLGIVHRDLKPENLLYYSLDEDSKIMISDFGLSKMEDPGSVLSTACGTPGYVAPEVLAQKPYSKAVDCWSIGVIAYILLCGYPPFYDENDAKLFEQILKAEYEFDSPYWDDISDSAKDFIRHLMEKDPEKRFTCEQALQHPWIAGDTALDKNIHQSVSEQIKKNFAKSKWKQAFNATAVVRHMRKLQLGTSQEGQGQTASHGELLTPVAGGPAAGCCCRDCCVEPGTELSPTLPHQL

[10] = molecular target: T9, GSK3α (Homo sapiens, UniProt P49840); assay: Kinase panel, CaNDY 1 µM; format: biochemical; settings: CaNDY 1 µM relative to DMSO
T9 construct: purchased Carna Biosciences

[11] = molecular target: T10, 3xFLAG-DYRK1A (Homo sapiens, UniProt Q13627); assay: Western blot of 3xFLAG-DYRK1A level in transfected 293T cells; format: cell-based; settings: CaNDY 2 μM, 8 h, compared with DMSO
T10 construct: F2A peptide linking to EGFP (2A skipping releases EGFP; a 2A remnant may stay on DYRK1A) (C); expressed in transfected cells; host or cells: 293T cells, transient
Protocol: To investigate whether DYRK1A is a client kinase of the CDC37/HSP90 system, we used a HSP90 inhibitor, ganetespib. 293T cells were transiently transfected with an expression vector of 3xFLAG-tagged DYRK1A (3xFLAG-DYRK1A). At 24 h after transfection, the cells were treated with ganetespib for the indicated time (0–8 h). Total cell lysates were collected and subjected to SDS-PAGE followed by Western blot analysis.
Figure 1 Ganetespib, a HSP90 inhibitor, decreases the DYRK1A protein level. 293T cells were transiently transfected with an expression vector for 3xFLAG-DYRK1A. At 24 h after transfection, the cells were treated with ganetespib (100 nM) and collected 0 and 8 h after treatment. Total cell lysates were subjected to SDS-PAGE followed by Western blot analysis using antibodies against FLAG and GAPDH. In the control group (DMSO), expression of 3xFLAG-DYRK1A increased at 8 h compared to 0 h, and ganetespib suppressed this increase of 3xFLAG-DYRK1A.
as §1

[12] = molecular target: T11, JAK1 (Homo sapiens, UniProt P23458); assay: Kinase panel, CaNDY 1 µM; format: biochemical; settings: CaNDY 1 µM relative to DMSO
T11 construct: purchased Carna Biosciences
T11 sequence (P23458 whole entry): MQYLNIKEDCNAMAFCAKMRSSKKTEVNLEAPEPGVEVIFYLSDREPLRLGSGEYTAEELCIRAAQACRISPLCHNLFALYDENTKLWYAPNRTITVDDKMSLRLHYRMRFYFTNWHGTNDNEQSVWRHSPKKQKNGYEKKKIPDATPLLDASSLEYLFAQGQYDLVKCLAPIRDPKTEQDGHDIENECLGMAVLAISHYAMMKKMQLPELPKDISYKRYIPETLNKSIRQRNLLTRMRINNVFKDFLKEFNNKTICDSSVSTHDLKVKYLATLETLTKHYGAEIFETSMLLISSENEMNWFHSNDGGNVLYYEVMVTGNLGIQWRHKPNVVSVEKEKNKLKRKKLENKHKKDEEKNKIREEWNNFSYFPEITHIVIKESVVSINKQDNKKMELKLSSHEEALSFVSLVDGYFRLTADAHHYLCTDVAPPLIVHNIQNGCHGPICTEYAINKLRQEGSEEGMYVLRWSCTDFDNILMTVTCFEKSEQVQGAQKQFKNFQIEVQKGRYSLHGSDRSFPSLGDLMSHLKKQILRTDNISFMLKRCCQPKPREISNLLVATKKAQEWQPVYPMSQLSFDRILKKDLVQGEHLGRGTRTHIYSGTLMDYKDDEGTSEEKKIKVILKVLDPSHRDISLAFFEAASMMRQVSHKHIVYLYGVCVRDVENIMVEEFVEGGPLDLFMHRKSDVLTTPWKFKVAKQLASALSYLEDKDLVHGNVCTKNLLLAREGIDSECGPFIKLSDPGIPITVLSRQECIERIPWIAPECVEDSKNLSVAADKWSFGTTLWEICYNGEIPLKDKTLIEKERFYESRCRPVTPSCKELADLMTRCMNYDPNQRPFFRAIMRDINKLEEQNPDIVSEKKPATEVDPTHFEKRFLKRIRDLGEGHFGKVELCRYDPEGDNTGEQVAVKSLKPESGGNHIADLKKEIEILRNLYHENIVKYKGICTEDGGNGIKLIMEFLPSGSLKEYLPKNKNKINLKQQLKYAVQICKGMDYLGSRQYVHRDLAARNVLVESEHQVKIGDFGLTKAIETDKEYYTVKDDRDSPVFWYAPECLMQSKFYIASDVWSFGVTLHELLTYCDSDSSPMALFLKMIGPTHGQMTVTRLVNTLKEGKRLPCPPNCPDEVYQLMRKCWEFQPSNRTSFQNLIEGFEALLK

[13] = molecular target: T12, FYN (Homo sapiens, UniProt P06241); assay: Kinase panel, CaNDY 1 µM; format: biochemical; settings: CaNDY 1 µM relative to DMSO
T12 construct: purchased Carna Biosciences

[14] = molecular target: T13, HER2 (Homo sapiens, UniProt P04626); assay: Kinase panel, CaNDY 1 µM; format: biochemical; settings: CaNDY 1 µM relative to DMSO
T13 construct: purchased Carna Biosciences

[15] = molecular target: T14, FGFR3 (Homo sapiens, UniProt P22607); assay: Kinase panel, CaNDY 1 µM; format: biochemical; settings: CaNDY 1 µM relative to DMSO
T14 construct: purchased Carna Biosciences
T14 sequence (P22607 23-806): as the sequence (P22607 23-806 K650E) above, with E628K counted along it

[16] = molecular target: T15, RSK4 (Homo sapiens, UniProt Q9UK32); assay: Kinase panel, CaNDY 1 µM; format: biochemical; settings: CaNDY 1 µM relative to DMSO
T15 construct: purchased Carna Biosciences
T15 sequence (Q9UK32 whole entry): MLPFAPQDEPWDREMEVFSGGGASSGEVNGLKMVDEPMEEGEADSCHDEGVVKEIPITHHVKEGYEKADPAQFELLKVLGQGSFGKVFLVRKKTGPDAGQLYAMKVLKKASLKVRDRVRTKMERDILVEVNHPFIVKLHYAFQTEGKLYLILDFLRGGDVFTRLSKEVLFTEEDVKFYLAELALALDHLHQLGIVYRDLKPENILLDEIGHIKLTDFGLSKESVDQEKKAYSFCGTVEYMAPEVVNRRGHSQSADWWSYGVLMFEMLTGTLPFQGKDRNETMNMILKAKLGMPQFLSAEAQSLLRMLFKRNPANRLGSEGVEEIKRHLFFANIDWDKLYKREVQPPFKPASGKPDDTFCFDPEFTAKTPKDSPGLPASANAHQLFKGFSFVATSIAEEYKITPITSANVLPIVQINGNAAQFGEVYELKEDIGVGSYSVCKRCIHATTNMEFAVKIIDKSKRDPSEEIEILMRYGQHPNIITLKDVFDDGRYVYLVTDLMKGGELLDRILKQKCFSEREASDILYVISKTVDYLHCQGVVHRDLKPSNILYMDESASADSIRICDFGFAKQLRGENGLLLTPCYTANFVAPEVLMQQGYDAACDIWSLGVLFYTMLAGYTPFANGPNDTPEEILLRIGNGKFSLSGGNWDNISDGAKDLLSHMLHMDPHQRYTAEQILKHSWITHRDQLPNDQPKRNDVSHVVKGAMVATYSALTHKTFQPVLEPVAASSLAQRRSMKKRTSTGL

[17] = molecular target: T16, PKCβ2 (Homo sapiens, UniProt P05771); assay: Kinase panel, CaNDY 1 µM; format: biochemical; settings: CaNDY 1 µM relative to DMSO
T16 construct: purchased Carna Biosciences

[18] = molecular target: T17, IRAK4 (Homo sapiens, UniProt Q9NWZ3); assay: Kinase panel, CaNDY 1 µM; format: biochemical; settings: CaNDY 1 µM relative to DMSO
T17 construct: purchased Carna Biosciences

[19] = molecular target: T18, MST1 (Homo sapiens, UniProt Q13043); assay: Kinase panel, CaNDY 1 µM; format: biochemical; settings: CaNDY 1 µM relative to DMSO
T18 construct: purchased Carna Biosciences

[20] = molecular target: T19, CaMK2β (Homo sapiens, UniProt Q13554); assay: Kinase panel, CaNDY 1 µM; format: biochemical; settings: CaNDY 1 µM relative to DMSO
T19 construct: purchased Carna Biosciences
T19 sequence (Q13554 whole entry): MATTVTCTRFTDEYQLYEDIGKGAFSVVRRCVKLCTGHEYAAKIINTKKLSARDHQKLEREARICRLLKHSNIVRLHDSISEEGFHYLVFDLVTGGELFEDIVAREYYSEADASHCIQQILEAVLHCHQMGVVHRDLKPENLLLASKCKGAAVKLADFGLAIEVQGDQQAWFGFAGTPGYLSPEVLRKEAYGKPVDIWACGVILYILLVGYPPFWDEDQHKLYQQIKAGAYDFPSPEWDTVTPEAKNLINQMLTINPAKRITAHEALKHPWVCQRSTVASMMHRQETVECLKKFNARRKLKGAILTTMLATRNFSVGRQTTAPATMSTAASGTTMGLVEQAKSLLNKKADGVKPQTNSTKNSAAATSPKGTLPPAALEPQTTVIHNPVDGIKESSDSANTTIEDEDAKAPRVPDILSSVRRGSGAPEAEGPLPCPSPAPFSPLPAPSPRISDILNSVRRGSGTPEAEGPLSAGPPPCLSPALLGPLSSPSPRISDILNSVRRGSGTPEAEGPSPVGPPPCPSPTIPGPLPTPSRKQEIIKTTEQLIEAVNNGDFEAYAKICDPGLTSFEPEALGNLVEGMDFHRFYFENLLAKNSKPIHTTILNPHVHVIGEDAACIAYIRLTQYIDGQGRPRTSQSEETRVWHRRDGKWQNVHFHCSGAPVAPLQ

[21] = molecular target: T20, EGFR(d746-750/T790M) (Homo sapiens, UniProt P00533, DEL746-750/T790M); assay: Kinase panel, CaNDY 1 µM; format: biochemical; settings: CaNDY 1 µM relative to DMSO
T20 construct: purchased Carna Biosciences

[22] = molecular target: T21, MAPKAPK3 (Homo sapiens, UniProt Q16644); assay: Kinase panel, CaNDY 1 µM; format: biochemical; settings: CaNDY 1 µM relative to DMSO
T21 construct: purchased Carna Biosciences

[23] = molecular target: T22, PKACα (Homo sapiens, UniProt P17612); assay: Kinase panel, CaNDY 1 µM; format: biochemical; settings: CaNDY 1 µM relative to DMSO
T22 construct: purchased Carna Biosciences

[24] = molecular target: T23, FGFR4(V550L) (Homo sapiens, UniProt P22455, V550L); assay: Kinase panel, CaNDY 1 µM; format: biochemical; settings: CaNDY 1 µM relative to DMSO
T23 construct: purchased Carna Biosciences

[25] = molecular target: T24, EGFR(T790M/L858R) (Homo sapiens, UniProt P00533, L858R/T790M); assay: Kinase panel, CaNDY 1 µM; format: biochemical; settings: CaNDY 1 µM relative to DMSO
T24 construct: purchased Carna Biosciences

[26] = molecular target: T25, HGK (Homo sapiens, UniProt O95819); assay: Kinase panel, CaNDY 1 µM; format: biochemical; settings: CaNDY 1 µM relative to DMSO
T25 construct: purchased Carna Biosciences

[27] = molecular target: T26, PHKG1 (Homo sapiens, UniProt Q16816); assay: Kinase panel, CaNDY 1 µM; format: biochemical; settings: CaNDY 1 µM relative to DMSO
T26 construct: purchased Carna Biosciences

[28] = molecular target: T27, LYNb (Homo sapiens, UniProt P07948); assay: Kinase panel, CaNDY 1 µM; format: biochemical; settings: CaNDY 1 µM relative to DMSO
T27 construct: purchased Carna Biosciences

[29] = molecular target: T28, MNK2 (Homo sapiens, UniProt Q9HBH9); assay: Kinase panel, CaNDY 1 µM; format: biochemical; settings: CaNDY 1 µM relative to DMSO
T28 construct: purchased Carna Biosciences

[30] = molecular target: T29, MAP2K7_Cascade (Homo sapiens, UniProt O14733); assay: Kinase panel, CaNDY 1 µM; format: biochemical; settings: CaNDY 1 µM relative to DMSO
T29 construct: purchased Carna Biosciences

## [H]/N=C1/NC(=O)C(=Cc2ccc3c(c2)CCO3)S1 [CaNDY, (Z)-5-[(2,3-dihydrobenzofuran-5-yl)methylene]-2-iminothiazolidin-4-one]
[1]
  remaining activity at 1 µM: 98.4%
[2]
  %Activity: 97.4%
[3]
  protein expression of other kinases: did not decrease the other 19 kinases
[4]
  remaining activity at 1 µM: 83.8%
[5]
  remaining activity at 1 µM: 101%
[6]
  remaining activity at 1 µM: 97.6%
[7]
  remaining activity at 1 µM: 36.5%
[8]
  remaining activity at 1 µM: 99.9%
[9]
  remaining activity at 1 µM: 100%
[10]
  remaining activity at 1 µM: 76.6%
[11]
  3xFLAG-DYRK1A level: decreased the 3xFLAG-DYRK1A level
[12]
  %Activity: 96.9%
[13]
  remaining activity at 1 µM: 102%
[14]
  remaining activity at 1 µM: 106%
[15]
  remaining activity at 1 µM: 104%
[16]
  %Activity: 94.6%
[17]
  remaining activity at 1 µM: 88.2%
[18]
  %Activity: 100.8%
[19]
  %Activity: 101.2%
[20]
  remaining activity at 1 µM: 98.2%
[21]
  %Activity: 101.0%
[22]
  remaining activity at 1 µM: 103%
[23]
  remaining activity at 1 µM: 88.9%
[24]
  remaining activity at 1 µM: 105%
[25]
  %Activity: 106.6%
[26]
  remaining activity at 1 µM: 42.1%
[27]
  remaining activity at 1 µM: 92.1%
[28]
  remaining activity at 1 µM: 98%
[29]
  remaining activity at 1 µM: 90.3%
[30]
  %Activity: 101.7%
